{"source": "patent US9491960B2", "about": "“Sweetener” (Tate & Lyle Ingredients Americas LLC, priority 2013, dated 2016)", "key": {"[1]": {"conditions": "cited from earlier work"}, "[2]": {"assay": "Round table sensory evaluation by test panelists: sucrose equivalent value (SEV) against sucrose reference samples", "format": "in vivo", "conditions": "for Sweetness (mean SEV, Duncan grouping) / Sweetness (mean SEV, two-way ANOVA, level of significance Duncan): 10 SEV solutions in neutral pH water; for Sweetness (mean SEV, Duncan grouping): level of significance for the grouping (Duncan): 5%; for Sweetness (mean SEV, two-way ANOVA, level of significance Duncan): superscripts = Duncan level of significance; for Mean 1 (mean sucrose equivalent value, SEV) / Median 1 (median sucrose equivalent value, SEV): equal sweet 10 SEV concentrations in neutral pH water, references 4%-14% sucrose, room temperature", "method": "Round table evaluations were performed with test panelists. Equal sweet 10 SEV concentrations in neutral pH water were made for allulose, fructose and sucralose, as well as a composition comprising allulose, fructose and sucralose. The components of the test compositions are described in the below tables. The mixed compositions were calculated using the Beidler mixture equation for the sweeteners. The Beidler mixture equation for sweeteners is as follows: […]\nThe concentration of each component in the mixture in ppm is divided by SEV (c/R) and is plotted against concentration, c. The slope of the linear regression is the maximum SEV (Rmax). The y-intercept of the linear regression multiplied by Rmax is the half-maximal sweetness concentration, 1/K. Rmax and 1/K are the two parameters used in the Beidler equation.\nThe equal-molar mixture was tested against reference samples for the panelists to determine SEV values. […] The test samples were served in 2 ounce (approximately 60 ml) soufflé cups coded with 3-digit codes at room temperature. A two minute wait period between samples was enforced. Water and unsalted crackers was available for the panelists to clear their palates before and during testing. EyeQuestion, software distributed by Logic8 BV of Elst, The Netherlands, was used for ballot development and recording of results. Results were collected in EyeQuestion for calculating approximate SEV level of each test sample. The test products analyzed in this experiment are described below in Table 1."}}, "note": "Like-named read-outs stand apart in the source and are kept apart here. Marks after values point to notes of the source that are not given here."}
{"compound": "O=C(CO)C(O)C(O)C(O)CO", "note": "(centres unmarked) [Allulose, allulose]", "values": [{"measurement": "Sweetness relative to sucrose", "setting": "[1]; % of the sweetness of sucrose", "value": "around 70%"}, {"measurement": "Sweetness (mean SEV, Duncan grouping)", "setting": "[2]", "value": "10.14^b-c"}, {"measurement": "Sweetness (mean SEV, two-way ANOVA, level of significance Duncan)", "setting": "[2]", "value": 10.14}, {"measurement": "Mean 1 (mean sucrose equivalent value, SEV)", "setting": "[2]", "value": 10.14}, {"measurement": "Median 1 (median sucrose equivalent value, SEV)", "setting": "[2]", "value": 10}]}
{"compound": "O=C(CO)[C@@H](O)[C@H](O)[C@H](O)CO", "note": "[Fructose, fructose]", "values": [{"measurement": "Sweetness (mean SEV, Duncan grouping)", "setting": "[2]", "value": "10.14^b-c"}, {"measurement": "Sweetness (mean SEV, two-way ANOVA, level of significance Duncan)", "setting": "[2]", "value": 10.14}, {"measurement": "Mean 1 (mean sucrose equivalent value, SEV)", "setting": "[2]", "value": 10.14}, {"measurement": "Median 1 (median sucrose equivalent value, SEV)", "setting": "[2]", "value": 10}]}
{"compound": "sucralose", "values": [{"measurement": "Sweetness relative to sucrose", "setting": "[1]; times as sweet as sucrose", "value": "approximately 600 times"}, {"measurement": "Sweetness (mean SEV, Duncan grouping)", "setting": "[2]", "value": "9.29^c"}, {"measurement": "Sweetness (mean SEV, two-way ANOVA, level of significance Duncan)", "setting": "[2]", "value": 9.29}, {"measurement": "Mean 1 (mean sucrose equivalent value, SEV)", "setting": "[2]", "value": 9.286}, {"measurement": "Median 1 (median sucrose equivalent value, SEV)", "setting": "[2]", "value": 10}]}
